Laboratory results reported in ChEMBL document CHEMBL1201862, “PubChem BioAssay data set” (2004).
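Assay format: 96-well plates, 48-hour exposure. Here, GI50 denotes the concentration required for 50% inhibition of growth.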 Calls of active or inactive are those of the source. No stated cut-off is given here; in the data, active = GI50 up to about 1.1 µM and inactive = higher.

Tests used:
Assay in all cases: NCI-60 cell line screen, 48 h
HL-60 = tested on: HL-60
M14 = tested on: M14
EKVX = tested on: EKVX
RPMI-8226 = tested on: RPMI-8226
CCRF-CEM = tested on: CCRF-CEM
OVCAR-4 = tested on: OVCAR-4
TK-10 = tested on: TK-10
SW-620 = tested on: SW-620
UACC-257 = tested on: UACC-257
MDA-N = tested on: MDA-N
IGROV-1 = tested on: IGROV-1
SNB-19 = tested on: SNB-19
HCC 2998 = tested on: HCC 2998
MDA-MB-435 = tested on: MDA-MB-435
T47D = tested on: T47D
UACC-62 = tested on: UACC-62
OVCAR-5 = tested on: OVCAR-5
SF-295 = tested on: SF-295
MDA-MB-231 = tested on: MDA-MB-231
U-251 = tested on: U-251

Compound	GI50 (HL-60)	GI50 (M14)	GI50 (EKVX)	GI50 (RPMI-8226)	GI50 (CCRF-CEM)	GI50 (OVCAR-4)	GI50 (TK-10)	GI50 (SW-620)	GI50 (UACC-257)	GI50 (MDA-N)	GI50 (IGROV-1)	GI50 (SNB-19)	GI50 (HCC 2998)	GI50 (MDA-MB-435)	GI50 (T47D)	GI50 (UACC-62)	GI50 (OVCAR-5)	GI50 (SF-295)	GI50 (MDA-MB-231)	GI50 (U-251)
O=[N+]([O-])c1ccc(-c2ccc([C@H]3CC(c4cc(F)c(Cl)cc4Cl)=NN3)o2)cc1	1.06 µM (active)	13.3 µM (inactive)	> 100 µM (inactive)	20.9 µM (inactive)	1.06 µM (active)	40.2 µM (inactive)	31.8 µM (inactive)	23.6 µM (inactive)	49.4 µM (inactive)	36.1 µM (inactive)	38.7 µM (inactive)	> 100 µM (inactive)	14.3 µM (inactive)	26.7 µM (inactive)	5.48 µM (inactive)	21.3 µM (inactive)	> 100 µM (inactive)	44.2 µM (inactive)		
O=C1NCCCNCCCNCCCNC(=O)c2cccc1n2		> 100 µM (inactive)	> 100 µM (inactive)	> 100 µM (inactive)	> 100 µM (inactive)	> 100 µM (inactive)	> 100 µM (inactive)	> 100 µM (inactive)	> 100 µM (inactive)	> 100 µM (inactive)	> 100 µM (inactive)	> 100 µM (inactive)	> 100 µM (inactive)	> 100 µM (inactive)		> 100 µM (inactive)	> 100 µM (inactive)	> 100 µM (inactive)	> 100 µM (inactive)	> 100 µM (inactive)
CSc1cc(Cl)c(C)cc1S(=O)(=O)NC(=O)NNc1ccc(F)cc1		> 100 µM (inactive)	> 100 µM (inactive)			> 100 µM (inactive)		> 100 µM (inactive)		> 100 µM (inactive)	> 100 µM (inactive)	> 100 µM (inactive)	30 µM (inactive)	> 100 µM (inactive)	> 100 µM (inactive)		> 100 µM (inactive)	> 100 µM (inactive)	> 100 µM (inactive)	> 100 µM (inactive)
CN(NC(=O)/C(=C/C=C/c1ccccc1)NC(=O)c1ccccc1)C1=C(Cl)C(=O)[N+](c2ccccc2)=CC1		18.1 µM (inactive)	35.8 µM (inactive)	23.9 µM (inactive)		22.4 µM (inactive)	55.2 µM (inactive)	16.4 µM (inactive)	41.2 µM (inactive)	18.2 µM (inactive)	12.1 µM (inactive)	25.4 µM (inactive)		17 µM (inactive)	15.7 µM (inactive)		> 100 µM (inactive)	35 µM (inactive)	18.4 µM (inactive)	19.8 µM (inactive)
CCC1OC2C(CC=C(C)C)=C3OC(C)(O)C(C)(CC)C(O)C3=C3OC(=O)C=C1C32 (stereo not drawn)		30.8 µM (inactive)	35.6 µM (inactive)	31.6 µM (inactive)	33.6 µM (inactive)	36.2 µM (inactive)	70.6 µM (inactive)	39.4 µM (inactive)	33.9 µM (inactive)			54.6 µM (inactive)	27 µM (inactive)	67 µM (inactive)	29 µM (inactive)	26.7 µM (inactive)	74.8 µM (inactive)	45.8 µM (inactive)	19 µM (inactive)	58.9 µM (inactive)
Cn1c(=O)c2[nH]c(C3CC(=O)CC(c4nc5c([nH]4)c(=O)n(C)c(=O)n5C)N3)nc2n(C)c1=O (stereo not drawn)	> 100 µM (inactive)	> 100 µM (inactive)	> 100 µM (inactive)	> 100 µM (inactive)	38.3 µM (inactive)	> 100 µM (inactive)	> 100 µM (inactive)	> 100 µM (inactive)	> 100 µM (inactive)	> 100 µM (inactive)	> 100 µM (inactive)	> 100 µM (inactive)		> 100 µM (inactive)	> 100 µM (inactive)	> 100 µM (inactive)	> 100 µM (inactive)	> 100 µM (inactive)	> 100 µM (inactive)	91 µM (inactive)
O=C(O)c1ccccc1.[Ag]	3.98 µM (inactive)	19.5 µM (inactive)	26.6 µM (inactive)	2.23 µM (inactive)	1.99 µM (inactive)	14.7 µM (inactive)	7.11 µM (inactive)		5.11 µM (inactive)	7.91 µM (inactive)	15.7 µM (inactive)	39.4 µM (inactive)	19.2 µM (inactive)	16.8 µM (inactive)	2.46 µM (inactive)	18.1 µM (inactive)	22.9 µM (inactive)	64 µM (inactive)		18.5 µM (inactive)
COc1cc2c3cc1Oc1cc(ccc1O)C[C@@H]1c4c(cc(OC)c(O)c4Oc4ccc(cc4)C[C@@H]3N(C)CC2)CC[N+]1(C)C	> 100 µM (inactive)	16.8 µM (inactive)	> 100 µM (inactive)	79.6 µM (inactive)		73.8 µM (inactive)	> 100 µM (inactive)	27.2 µM (inactive)	56 µM (inactive)	> 100 µM (inactive)	> 100 µM (inactive)	> 100 µM (inactive)		43.7 µM (inactive)	23.8 µM (inactive)	> 100 µM (inactive)	> 100 µM (inactive)	19.9 µM (inactive)	25.1 µM (inactive)	28.9 µM (inactive)
COc1cc(OC)c2nc(C)c(CCCl)c(Cl)c2c1	> 100 µM (inactive)	> 100 µM (inactive)	> 100 µM (inactive)	> 100 µM (inactive)	> 100 µM (inactive)	> 100 µM (inactive)	> 100 µM (inactive)	> 100 µM (inactive)	> 100 µM (inactive)	> 100 µM (inactive)	> 100 µM (inactive)	> 100 µM (inactive)	> 100 µM (inactive)	> 100 µM (inactive)		> 100 µM (inactive)	> 100 µM (inactive)	> 100 µM (inactive)	> 100 µM (inactive)	> 100 µM (inactive)
CC1=NN(c2nc(N)nc(CC#N)n2)C(C)(C)C1	> 100 µM (inactive)	> 100 µM (inactive)	> 100 µM (inactive)	> 100 µM (inactive)	> 100 µM (inactive)	> 100 µM (inactive)	> 100 µM (inactive)	> 100 µM (inactive)	> 100 µM (inactive)		> 100 µM (inactive)	> 100 µM (inactive)	> 100 µM (inactive)	> 100 µM (inactive)	> 100 µM (inactive)	> 100 µM (inactive)		> 100 µM (inactive)	> 100 µM (inactive)	> 100 µM (inactive)
COC(=O)C(Cc1c(C2Nc3ccccc3C2CC(NC(C)=O)C(=O)OC)[nH]c2ccccc12)NC(C)=O (stereo not drawn)	> 100 µM (inactive)	> 100 µM (inactive)	> 100 µM (inactive)	> 100 µM (inactive)	> 100 µM (inactive)		> 100 µM (inactive)	> 100 µM (inactive)	> 100 µM (inactive)	> 100 µM (inactive)	> 100 µM (inactive)	> 100 µM (inactive)		> 100 µM (inactive)	> 100 µM (inactive)	> 100 µM (inactive)	> 100 µM (inactive)	> 100 µM (inactive)	> 100 µM (inactive)	> 100 µM (inactive)
